{"source": "patent US10196677B2", "about": "“Method for identification of sensitivity of a patient to telomerase inhibition therapy” (Geron Corporation, priority 2008, dated 2019)", "origin": "cited, not measured here", "key": {"animal tumor models": {"tested_on": "animal tumor models", "conditions": "animal tumor models / human cancer cells, local and systemic delivery"}, "cancer cells": {"tested_on": "cancer cells", "conditions": "cell culture, various cancer cell types"}}, "note": "“Also recorded” adds a separate entry of the source. [NPS] = N3'→P5' thiophosphoramidate linkage", "data": [{"substance": "GRN163: oligonucleotide with sequence TAGGGTTAGACAA (SEQ ID NO:2) and N3′→P5′ thiophosphoramidate (NPS) linkages; hTR template inhibitor (all [NPS], sugars by position and methylation of C not given here)", "values": [{"measurement": "Activity against tumors in vivo", "setting": "animal tumor models", "value": "therapeutically effective"}, {"measurement": "Inhibitory activity / growth inhibition of cancer cells in vitro", "setting": "cancer cells", "value": "has shown inhibitory activity in vitro in cell culture; also recorded: have shown inhibitory activity in vitro"}]}]}
